According to patent US6376497B1, “Antifungal azole derivatives having a fluorinated vinyl group and process for preparing same” (Korea Research Institute of Chemical Technology, priority 1999, dated 2002):

Key:
Assay in all cases: In vitro antifungal activity, microbroth dilution MIC
Format in all cases: cell-based
[1] = tested on: Aspergillus furnigatus B. 19119; details: 4 to 48 hours; for Minimal inhibitory concentration(MIC), A furnigatus B. 19119: RPMI-1640, 35° C., no growth observed
Protocol: (§1) In vitro antifungal activities of the inventive antifungal compounds were evaluated using the test strains shown in Table VIII by the following microbroth dilution method which is a modified version of the procedure recommended by National Committee for Clinical Laboratory Standards(see National Committee for Clinical Laboratory Standards, 1992, Reference methods for broth dilution antifungal susceptibility testing of yeasts, Proposed standard M27-P, National Committee for clinical laboratory standards, Villanova, Pa; and National Committee for Clinical Laboratory Standards, 1995, Reference methods for broth dilution antifungal susceptibility testing of yeasts. Tentative standard M27-T, National Committee for clinical laboratory standards, Villanova, Pa).
(§2) Sabourad Dextrose Agar(Difco) was used as a culture medium, and RPMI-1640 broth(Sigma. Co. w/L-glutamine, wo/NaHCO3)(0.165 M MOPS, pH 7.0), as a dilution medium.
(§3) Each of the test strains were subcultured in Sabourad Dextrose Agar medium twice and a stain sample was taken from prominent colonies and suspended in sterile physiological saline solution in a cap tube. The turbidity of the suspension was adjusted to that of the Mcfarland 0.5 standard sample(approximately 10^6 CFU/ml). Then the suspension was diluted 500-fold with sterile RPMI-1640 liquid medium to 2×10^3 CFU/ml.
(§4) Each of the test compounds(the compounds obtained in Examples 1 to 150 and comparative compounds, i.e., fluconazole(FCZ) and itraconazole (ICZ)), was dissolved in DMSO to give a stock solution having a concentration of 4000 μg/ml and the stock solution was successively diluted to obtain test solutions having test compound concentrations of 200, 100, 50, 25, 12.5, 6.25, 3.13, 1.56, 0.78, 0.39, 0.20 and 0.10 μg/ml, respectively.
(§5) 0.1 ml portion of the test solutions were added to the wells of a sterile 96 well plate. Then, 0.1 ml portion of each of the test strain solutions were added successively to the wells and the plate was incubated at 35° C. for 4 to 48 hours.
(§6) Minimal inhibitory concentration(MIC) of each compound was defined as the concentration of the test compound where no growth of the strain could be observed.

[2] = tested on: Aspergillus niger A. 16404; details: 4 to 48 hours; for Minimal inhibitory concentration(MIC), A. niger A. 16404: RPMI-1640, 35° C., no growth observed
Protocol: as §1, §2, §3, §4, §5, §6

[3] = tested on: Candida albicans A. 10231; details: 4 to 48 hours; for Minimal inhibitory concentration(MIC), C. albicans A. 10231: RPMI-1640, 35° C., no growth observed
Protocol: as §1, §2, §3, §4, §5, §6

Candida albicans C1-2 = details: 4 to 48 hours; for Minimal inhibitory concentration(MIC), C. albicans C1-2: RPMI-1640, 35° C., no growth observed
Protocol: as §1, §2, §3, §4, §5, §6

[4] = tested on: Candida albicans IFO. 1385; details: 4 to 48 hours; for Minimal inhibitory concentration(MIC), C. albicans IFO. 1385: RPMI-1640, 35° C., no growth observed
Protocol: as §1, §2, §3, §4, §5, §6

Candida krusei K. 11655 = details: 4 to 48 hours; for Minimal inhibitory concentration(MIC), C. krusei K. 11655: RPMI-1640, 35° C., no growth observed
Protocol: as §1, §2, §3, §4, §5, §6

[5] = tested on: Candida parapsitosis A. 7330; details: 4 to 48 hours; for Minimal inhibitory concentration(MIC), C. parapsitosis A. 7330: RPMI-1640, 35° C., no growth observed
Protocol: as §1, §2, §3, §4, §5, §6

[6] = tested on: Candida pseudotropicalis K. 11658; details: 4 to 48 hours; for Minimal inhibitory concentration(MIC), C. pseudotropicalis K. 11658: RPMI-1640, 35° C., no growth observed
Protocol: as §1, §2, §3, §4, §5, §6

[7] = tested on: Candida tropicalis A. 13803; details: 4 to 48 hours; for Minimal inhibitory concentration(MIC), C. tropicalis A. 13803: RPMI-1640, 35° C., no growth observed
Protocol: as §1, §2, §3, §4, §5, §6

[8] = tested on: Cryptococcus neoformans A. 34144; details: 4 to 48 hours; for Minimal inhibitory concentration(MIC), Cry. neoformans A. 34144: RPMI-1640, 35° C., no growth observed
Protocol: as §1, §2, §3, §4, §5, §6

[9] = tested on: Cryptococcus neoformans B. 42419; details: 4 to 48 hours; for Minimal inhibitory concentration(MIC), Cry. neoformans B. 42419: RPMI-1640, 35° C., no growth observed
Protocol: as §1, §2, §3, §4, §5, §6

[10] = tested on: Cryptococcus neoformans IFM. 40092; details: 4 to 48 hours; for Minimal inhibitory concentration(MIC), Cry. neoformans IFM. 40092: RPMI-1640, 35° C., no growth observed
Protocol: as §1, §2, §3, §4, §5, §6

[11] = tested on: Torulopsis glabrata B. 16205; details: 4 to 48 hours; for Minimal inhibitory concentration(MIC), T. glabrata B. 16205: RPMI-1640, 35° C., no growth observed
Protocol: as §1, §2, §3, §4, §5, §6

[12] = tested on: Trichophyton mentagrophytes A. 9129; details: 4 to 48 hours; for Minimal inhibitory concentration(MIC), T. mentagrophytes A. 9129: RPMI-1640, 35° C., no growth observed
Protocol: as §1, §2, §3, §4, §5, §6

[13] = tested on: Trichophyton mentagrophytes B. 32663; details: 4 to 48 hours; for Minimal inhibitory concentration(MIC), T. mentagrophytes B. 32663: RPMI-1640, 35° C., no growth observed
Protocol: as §1, §2, §3, §4, §5, §6

SMILES	Minimal inhibitory concentration(MIC), A furnigatus B. 19119 [1] [µg/mL]	Minimal inhibitory concentration(MIC), A. niger A. 16404 [2] [µg/mL]	Minimal inhibitory concentration(MIC), C. albicans A. 10231 [3] [µg/mL]	Minimal inhibitory concentration(MIC), C. albicans C1-2 (Candida albicans C1-2) [µg/mL]	Minimal inhibitory concentration(MIC), C. albicans IFO. 1385 [4] [µg/mL]	Minimal inhibitory concentration(MIC), C. krusei K. 11655 (Candida krusei K. 11655) [µg/mL]	Minimal inhibitory concentration(MIC), C. parapsitosis A. 7330 [5] [µg/mL]	Minimal inhibitory concentration(MIC), C. pseudotropicalis K. 11658 [6] [µg/mL]	Minimal inhibitory concentration(MIC), C. tropicalis A. 13803 [7] [µg/mL]	Minimal inhibitory concentration(MIC), Cry. neoformans A. 34144 [8] [µg/mL]	Minimal inhibitory concentration(MIC), Cry. neoformans B. 42419 [9] [µg/mL]	Minimal inhibitory concentration(MIC), Cry. neoformans IFM. 40092 [10] [µg/mL]	Minimal inhibitory concentration(MIC), T. glabrata B. 16205 [11] [µg/mL]	Minimal inhibitory concentration(MIC), T. mentagrophytes A. 9129 [12] [µg/mL]	Minimal inhibitory concentration(MIC), T. mentagrophytes B. 32663 [13] [µg/mL]	other results
FC(Oc1ccc(OCC2COC(Cn3ccnc3)(c3ccc(F)cc3F)O2)cc1)=C(c1cccc(Cl)c1)C(F)(F)F (mixture of isomers) [Ex. 114]	>100	>100	50.0	25.0	1.56	>100	>100	>100	>100	1.56	1.56	0.39	50.0	6.25	3.13	
CCCCc1ccc(C(=C(F)N2CCN(c3ccc(OCC4COC(Cn5ccnc5)(c5ccc(F)cc5F)O4)cc3)CC2)C(F)(F)F)cc1 (mixture of isomers) [Ex. 140]	50.0	>100	>100	>100	1.56	3.13	1.56	1.56	>100	1.56	1.56	0.39	100	12.5	0.39	
FC(OCC1COC(Cn2ccnc2)(c2ccc(F)cc2F)O1)=C(c1cccc(Cl)c1)C(F)(F)F (mixture of isomers) [Ex. 64]																Minimal inhibitory concentration (MIC) ([1]; A furnigatus B. 19119, RPMI-1640, 35° C.): 3.13 µg/mL; Minimal inhibitory concentration (MIC) ([2]; A. niger A. 16404, RPMI-1640, 35° C.): 100 µg/mL; Minimal inhibitory concentration (MIC) ([3]; C. albicans A. 10231, RPMI-1640, 35° C.): 12.5 µg/mL; Minimal inhibitory concentration (MIC) (Candida albicans C1-2; C. albicans C1-2, RPMI-1640, 35° C.): 12.5 µg/mL; Minimal inhibitory concentration (MIC) ([4]; C. albicans IFO. 1385, RPMI-1640, 35° C.): 0.78 µg/mL; Minimal inhibitory concentration (MIC) (Candida krusei K. 11655; C. krusei K. 11655, RPMI-1640, 35° C.): 50.0 µg/mL; Minimal inhibitory concentration (MIC) ([5]; C. parapsitosis A. 7330, RPMI-1640, 35° C.): 100 µg/mL; Minimal inhibitory concentration (MIC) ([6]; C. pseudotropicalis K. 11658, RPMI-1640, 35° C.): 25.0 µg/mL; Minimal inhibitory concentration (MIC) ([7]; C. tropicalis A. 13803, RPMI-1640, 35° C.): 100 µg/mL; Minimal inhibitory concentration (MIC) ([8]; Cry. neoformans A. 34144, RPMI-1640, 35° C.): 1.56 µg/mL; Minimal inhibitory concentration (MIC) ([9]; Cry. neoformans B. 42419, RPMI-1640, 35° C.): 1.56 µg/mL; Minimal inhibitory concentration (MIC) ([10]; Cry. neoformans IFM. 40092, RPMI-1640, 35° C.): 0.20 µg/mL; Minimal inhibitory concentration (MIC) ([11]; T. glabrata B. 16205, RPMI-1640, 35° C.): 6.25 µg/mL; Minimal inhibitory concentration (MIC) ([12]; T. mentagrophytes A. 9129, RPMI-1640, 35° C.): 6.25 µg/mL; Minimal inhibitory concentration (MIC) ([13]; T. mentagrophytes B. 32663, RPMI-1640, 35° C.): 1.56 µg/mL
Cc1ccc(C(=C(F)OCC2COC(Cn3cncn3)(c3ccc(Cl)cc3Cl)O2)C(F)(F)F)cc1C (mixture of isomers) [Ex. 82]	>100	>100	>100	>100	12.5	>100	>100	>100	>100	3.13	3.13	0.39	>100	>100	>100	
